Measurements reported in ChEMBL document CHEMBL2413072, “Synthesis and in vitro anticancer studies of novel C-2 arylidene congeners of lantadenes” (2013).

How the values were obtained:
Assay type in all cases: functional
MDA-MB-468 [1] = test: Growth inhibition of human MDA-MB-468 cells assessed as cell growth at 10^-7 M by sulforhodamine B assay; settings: read-out: Activity
OVCAR-4 [2] = test: Growth inhibition of human OVCAR4 cells assessed as cell growth at 10^-7 M by sulforhodamine B assay; settings: read-out: Activity
SW-620 = test: Growth inhibition of human SW620 cells by sulforhodamine B assay
SK-OV-3 [3] = test: Growth inhibition of human SKOV3 cells assessed as cell growth at 10^-6 M by sulforhodamine B assay; settings: read-out: Activity
MDA-MB-468 [4] = test: Growth inhibition of human MDA-MB-468 cells assessed as cell growth at 10^-4 M by sulforhodamine B assay; settings: read-out: Activity
HOP-62 = test: Growth inhibition of human HOP62 cells assessed as cell growth at 10^-4 M by sulforhodamine B assay; settings: read-out: Activity
HCT-116 [5] = test: Growth inhibition of human HCT116 cells assessed as cell growth at 10^-6 M by sulforhodamine B assay; settings: read-out: Activity
BT-549 = test: Growth inhibition of human BT549 cells assessed as cell growth at 10^-7 M by sulforhodamine B assay; settings: read-out: Activity
COLO 205 = test: Growth inhibition of human COLO205 cells assessed as cell growth at 10^-6 M by sulforhodamine B assay; settings: read-out: Activity
HT-29 [6] = test: Growth inhibition of human HT-29 cells assessed as cell growth at 10^-7 M by sulforhodamine B assay; settings: read-out: Activity
HCT-116 [7] = test: Growth inhibition of human HCT116 cells assessed as cell growth at 10^-4 M by sulforhodamine B assay; settings: read-out: Activity
CAKI-1 = test: Growth inhibition of human CAKI-1 cells assessed as cell growth at 10^-8 M by sulforhodamine B assay; settings: read-out: Activity
SR = test: Growth inhibition of human SR cells assessed as cell growth at 10^-7 M by sulforhodamine B assay; settings: read-out: Activity
TK-10 = test: Growth inhibition of human TK10 cells by sulforhodamine B assay
NCI-H226 = test: Growth inhibition of human NCI-H226 cells assessed as cell growth at 10^-6 M by sulforhodamine B assay; settings: read-out: Activity
A498 [8] = test: Growth inhibition of human A498 cells assessed as cell growth at 10^-7 M by sulforhodamine B assay; settings: read-out: Activity
M14 = test: Growth inhibition of human M14 cells by sulforhodamine B assay
K562 [9] = test: Growth inhibition of human K562 cells assessed as cell growth at 10^-4 M by sulforhodamine B assay; settings: read-out: Activity
OVCAR-3 = test: Growth inhibition of human OVCAR3 cells assessed as cell growth at 10^-8 M by sulforhodamine B assay; settings: read-out: Activity
ACHN [10] = test: Growth inhibition of human ACHN cells assessed as cell growth at 10^-8 M by sulforhodamine B assay; settings: read-out: Activity
SK-OV-3 [11] = test: Growth inhibition of human SKOV3 cells assessed as cell growth at 10^-4 M by sulforhodamine B assay; settings: read-out: Activity
DU-145 = test: Growth inhibition of human DU145 cells by sulforhodamine B assay
CCRF-CEM = test: Growth inhibition of human CCRF-CEM cells assessed as cell growth at 10^-8 M by sulforhodamine B assay; settings: read-out: Activity
SK-MEL-2 [12] = test: Growth inhibition of human SK-MEL-2 cells by sulforhodamine B assay
SK-MEL-5 = test: Growth inhibition of human SK-MEL-5 cells by sulforhodamine B assay
HT-29 [13] = test: Growth inhibition of human HT-29 cells by sulforhodamine B assay
ACHN [14] = test: Growth inhibition of human ACHN cells assessed as cell growth at 10^-7 M by sulforhodamine B assay; settings: read-out: Activity
A498 [15] = test: Growth inhibition of human A498 cells assessed as cell growth at 10^-8 M by sulforhodamine B assay; settings: read-out: Activity
SF-268 = test: Growth inhibition of human SF268 cells assessed as cell growth at 10^-4 M by sulforhodamine B assay; settings: read-out: Activity
MCF7 = test: Growth inhibition of human MCF7 cells by sulforhodamine B assay
K562 [16] = test: Growth inhibition of human K562 cells by sulforhodamine B assay
OVCAR-4 [17] = test: Growth inhibition of human OVCAR4 cells assessed as cell growth at 10^-6 M by sulforhodamine B assay; settings: read-out: Activity
HOP-92 = test: Growth inhibition of human HOP92 cells assessed as cell growth at 10^-4 M by sulforhodamine B assay; settings: read-out: Activity
MDA-MB-435 = test: Growth inhibition of human MDA-MB-435 cells assessed as cell growth at 10^-8 M by sulforhodamine B assay; settings: read-out: Activity
OVCAR-4 [18] = test: Growth inhibition of human OVCAR4 cells by sulforhodamine B assay
SK-MEL-2 [19] = test: Growth inhibition of human SK-MEL-2 cells assessed as cell growth at 10^-4 M by sulforhodamine B assay; settings: read-out: Activity
LOX IMVI = test: Growth inhibition of human LOXIMVI cells assessed as cell growth at 10^-7 M by sulforhodamine B assay; settings: read-out: Activity
SK-MEL-28 = test: Growth inhibition of human SK-MEL-28 cells by sulforhodamine B assay
[20] = read-out: LC50 (the source's name)
[21] = read-out: pLC50 (the source's name) (converted)

## CC(C)=CC(=O)O[C@@H]1CC(C)(C)C[C@H]2C3=CC[C@@H]4[C@@]5(C)CCC(=O)C(C)(C)[C@@H]5CC[C@@]4(C)[C@]3(C)CC[C@@]12C(=O)O
MDA-MB-468 [1]
  growth at 0.1 µM: 89%
OVCAR-4 [2]
  growth at 0.1 µM: 97%
SW-620; read-out: GI50
  GI50: 4 µM
SW-620; [20]
  CC50: > 100 µM
SW-620; read-out: TGI
  TGI: 36.1 µM
SW-620; read-out: pGI50 (converted)
  GI50: 3.98 µM
SW-620; [21]
  CC50: > 100 µM
SW-620; read-out: pTGI (converted)
  TGI: 36.3 µM
SK-OV-3 [3]
  growth at 1 µM: 108%
MDA-MB-468 [4]
  growth at 100 µM: -37%
HOP-62
  growth at 100 µM: -21%
HCT-116 [5]
  growth at 1 µM: 70%
BT-549
  growth at 0.1 µM: 109%
COLO 205
  growth at 1 µM: 103%
HT-29 [6]
  growth at 0.1 µM: 95%
HCT-116 [7]
  growth at 100 µM: -6%
CAKI-1
  growth at 0.01 µM: 95%
SR
  growth at 0.1 µM: 99%
TK-10; read-out: GI50
  GI50: 7.02 µM
TK-10; [20]
  CC50: > 100 µM
TK-10; read-out: TGI
  TGI: 49.6 µM
TK-10; read-out: pGI50 (converted)
  GI50: 7.08 µM
TK-10; [21]
  CC50: > 100 µM
TK-10; read-out: pTGI (converted)
  TGI: 50.1 µM
NCI-H226
  growth at 1 µM: 81%
A498 [8]
  growth at 0.1 µM: 80%
M14; read-out: GI50
  GI50: 6.52 µM
M14; [20]
  CC50: 76.6 µM
M14; read-out: TGI
  TGI: 25.2 µM
M14; read-out: pGI50 (converted)
  GI50: 6.46 µM
M14; [21]
  CC50: 75.9 µM
M14; read-out: pTGI (converted)
  TGI: 25.1 µM
K562 [9]
  growth at 100 µM: 15%
OVCAR-3
  growth at 0.01 µM: 104%
ACHN [10]
  growth at 0.01 µM: 97%
SK-OV-3 [11]
  growth at 100 µM: 15%
DU-145; read-out: GI50
  GI50: 5.12 µM
DU-145; [20]
  CC50: 98.3 µM
DU-145; read-out: TGI
  TGI: 25.1 µM
DU-145; read-out: pGI50 (converted)
  GI50: 5.13 µM
DU-145; [21]
  CC50: 97.7 µM
DU-145; read-out: pTGI (converted)
  TGI: 25.1 µM
CCRF-CEM
  growth at 0.01 µM: 104%
SK-MEL-2 [12]; read-out: GI50
  GI50: 3.48 µM
SK-MEL-2 [12]; [20]
  CC50: 61.3 µM
SK-MEL-2 [12]; read-out: TGI
  TGI: 16.9 µM
SK-MEL-2 [12]; read-out: pGI50 (converted)
  GI50: 3.47 µM
SK-MEL-2 [12]; [21]
  CC50: 61.7 µM
SK-MEL-2 [12]; read-out: pTGI (converted)
  TGI: 17 µM
SK-MEL-5; read-out: GI50
  GI50: 1.5 µM
SK-MEL-5; [20]
  CC50: 46.2 µM
SK-MEL-5; read-out: TGI
  TGI: 11.7 µM
SK-MEL-5; read-out: pGI50 (converted)
  GI50: 1.51 µM
SK-MEL-5; [21]
  CC50: 45.7 µM
SK-MEL-5; read-out: pTGI (converted)
  TGI: 11.7 µM
HT-29 [13]; read-out: GI50
  GI50: 3.94 µM
HT-29 [13]; read-out: LC50
  LC50 (50% cell kill): > 100 µM
HT-29 [13]; read-out: TGI
  TGI: 32.3 µM
HT-29 [13]; read-out: pGI50 (converted)
  GI50: 3.98 µM
HT-29 [13]; read-out: pLC50 (converted)
  LC50 (50% cell kill): > 100 µM
HT-29 [13]; read-out: pTGI (converted)
  TGI: 32.4 µM
ACHN [14]
  growth at 0.1 µM: 92%
A498 [15]
  growth at 0.01 µM: 86%
SF-268
  growth at 100 µM: -38%
MCF7; read-out: GI50
  GI50: 3.29 µM
MCF7; [20]
  CC50: > 100 µM
MCF7; read-out: TGI
  TGI: > 100 µM
MCF7; read-out: pGI50 (converted)
  GI50: 3.31 µM
MCF7; [21]
  CC50: > 100 µM
MCF7; read-out: pTGI (converted)
  TGI: > 100 µM
K562 [16]; read-out: GI50
  GI50: 3.47 µM
K562 [16]; read-out: LC50
  LC50: > 100 µM
K562 [16]; read-out: TGI
  TGI: > 100 µM
K562 [16]; read-out: pGI50 (converted)
  GI50: 3.47 µM
K562 [16]; read-out: pLC50 (converted)
  LC50: > 100 µM
K562 [16]; read-out: pTGI (converted)
  TGI: > 100 µM
OVCAR-4 [17]
  growth at 1 µM: 83%
HOP-92
  growth at 100 µM: -50%
MDA-MB-435
  growth at 0.01 µM: 99%
OVCAR-4 [18]; read-out: GI50
  GI50: 5.07 µM
OVCAR-4 [18]; [20]
  CC50: > 100 µM
OVCAR-4 [18]; read-out: TGI
  TGI: > 100 µM
OVCAR-4 [18]; read-out: pGI50 (converted)
  GI50: 5.01 µM
OVCAR-4 [18]; [21]
  CC50: > 100 µM
OVCAR-4 [18]; read-out: pTGI (converted)
  TGI: > 100 µM
SK-MEL-2 [19]
  growth at 100 µM: -69%
LOX IMVI
  growth at 0.1 µM: 92%
SK-MEL-28; read-out: GI50
  GI50: 11.6 µM
SK-MEL-28; [20]
  CC50: > 100 µM
SK-MEL-28; read-out: TGI
  TGI: > 100 µM
SK-MEL-28; read-out: pGI50 (converted)
  GI50: 11.7 µM
SK-MEL-28; [21]
  CC50: > 100 µM
SK-MEL-28; read-out: pTGI (converted)
  TGI: > 100 µM
